In paper PMC11879280, “Antimicrobial activity of peptoids against Metallo-β-lactamase-producing Klebsiella pneumoniae, Acinetobacter baumannii, Pseudomonas aeruginosa, and other WHO priority pathogens, including Candida auris” (Journal of Applied Microbiology, 2025):
Converted amounts (≈) assume the structure as drawn. Where two headings read alike, the source gives them in different places.

Experiments:
C. auris CBS10913 [1] = experiment: Checkerboard microdilution synergy test; assay type: cell-based, Candida auris
Procedure: (§1) The checkerboard microdilution test was performed to determine the fractional inhibitory concentration (FIC) of selected antimicrobials and assess whether the combination had synergistic, antagonistic, or indifferent effects (Anon [2016]) against strains of K. pneumoniae or C. auris. […] Additionally, a strain susceptible to ciprofloxacin was tested to observe the outcome of its combination with TM8 as a representative case from susceptible isolates. […] Then, 10 µl of bacteria (5 × 10^6 CFU ml^−1) or C. auris (2.5 × 10^4 CFU ml^−1) were added to each well, except for the sterility control well. […] The sterility control wells contained only MHB (or RPMI in case of C. auris), and the growth control contained 110 µl of microbial inoculum with no antimicrobials. Subsequently, the plates were incubated for 18- 24 hours at 36 ± 1 °C.
(§2) The FIC for each combination interaction was calculated as follows:
(§3) Then, the summation of FIC (ƩFIC) was calculated for each antimicrobial combination as follows: ƩFIC = FICA + FICB. The results were interpretated as follows: Synergy if ƩFIC ≤ 0.5; Additive if 0.5<ƩFIC ≤ 1; Indifference if […] ≤ 4; and Antagonism if ƩFIC > 4 (Odds [2003]). All antimicrobial synergy experiments were repeated in at least two independent runs.

C. auris CBS12373 [2] = experiment: Checkerboard microdilution synergy test; assay type: cell-based, Candida auris
Procedure: as §1, §2, §3

[3] = tested on: C. auris CBS12373 biofilm; assay type: cell-based, Candida auris; settings: for Mature biofilm inhibition, blank corrected 570 nm, av. of readings: MTT absorbance
Procedure: To assess disruption of mature biofilms, 2 × 10^5 cells were cultured for 2 h in 96-well flat bottom microtiter plates at 37°C, washed, then incubated for 48 h in fresh media to form mature biofilm. […] For each activity test, the metabolic activities of the yeast cells in biofilms were measured by MTT reduction assay after washing the disrupted biofilm with PBS (Srivastava and Ahmad [2020]).

[4] = tested on: C. auris CBS12373 biofilm; experiment: Initial biofilm inhibition, MTT reduction assay; assay type: cell-based, Candida auris
C. auris CBS10913 [5] = settings: CBS 10 913; RPMI 1640 with MOPS, 5 × 10^3 CFU ml^−1; ≥90% reduction (≥50% for fluconazole)
C. auris CBS12373 [6] = experiment: Broth microdilution MIC; assay type: cell-based, Candida auris
[7] = tested on: C. auris CBS12373 biofilm; experiment: Anti-adherence (biofilm prevention), MTT reduction assay; assay type: cell-based, Candida auris
Procedure: Finally, 3-(4,5-Dimethylthiazol 2-yl)-2,5-diphenyltetrazolium bromide (MTT) reduction assay was performed to observe the metabolic activities of C. auris.

C. auris CBS10913 [8] = experiment: microbe, parasite or virus in culture; settings: Candidozyma auris, read-out: MIC against C. auris
A. baumannii 008 = experiment: MIC Test Strip MBL (imipenem, imipenem with EDTA); assay type: cell-based; settings: Acinetobacter baumannii, Mueller–Hinton agar, 20 h, 37°C, read-out: Imipenem IMI (MIC, MBL strip)
Procedure: (§4) The test was performed as per the manufacturer’s instructions. Briefly, the strips were applied to a lawn culture of bacteria maintained at 1.5 × 10^8 CFU ml^−1 on Mueller–Hinton agar (Oxoid, UK) and incubated for 20 h at 37°C.

A. baumannii 006 = experiment: MIC Test Strip MBL (imipenem, imipenem with EDTA); assay type: cell-based; settings: Acinetobacter baumannii, Mueller–Hinton agar, 20 h, 37°C, read-out: Imipenem IMI (MIC, MBL strip)
Procedure: as §4

A. baumannii 005 = experiment: MIC Test Strip MBL (imipenem, imipenem with EDTA); assay type: cell-based; settings: Acinetobacter baumannii, Mueller–Hinton agar, 20 h, 37°C, read-out: Imipenem IMI (MIC, MBL strip)
Procedure: as §4

K. pneumoniae JIE2709 = experiment: MIC Test Strip MBL (imipenem, imipenem with EDTA); assay type: cell-based; settings: Klebsiella pneumoniae, Mueller–Hinton agar, 20 h, 37°C, read-out: Imipenem IMI (MIC, MBL strip)
Procedure: as §4

K. pneumoniae JIE2713 = experiment: MIC Test Strip MBL (imipenem, imipenem with EDTA); assay type: cell-based; settings: Klebsiella pneumoniae, Mueller–Hinton agar, 20 h, 37°C, read-out: Imipenem IMI (MIC, MBL strip)
Procedure: as §4

A. baumannii 007 = experiment: MIC Test Strip MBL (imipenem, imipenem with EDTA); assay type: cell-based; settings: Acinetobacter baumannii, Mueller–Hinton agar, 20 h, 37°C, read-out: Imipenem IMI (MIC, MBL strip)
Procedure: as §4

P. aeruginosa AR-1270 = experiment: MIC Test Strip MBL (imipenem, imipenem with EDTA); assay type: cell-based; settings: Pseudomonas aeruginosa, AR1270, Mueller–Hinton agar, 20 h, 37°C, read-out: Imipenem IMI (MIC, MBL strip)
Procedure: as §4

P. aeruginosa 33 = experiment: MIC Test Strip MBL (imipenem, imipenem with EDTA); assay type: cell-based; settings: Pseudomonas aeruginosa, Mueller–Hinton agar, 20 h, 37°C, read-out: Imipenem IMI (MIC, MBL strip)
Procedure: as §4

[9] = Candidozyma auris, read-out: MIC of DrugB (alone, checkerboard)

OC(Cn1cncn1)(Cn1cncn1)c1ccc(F)cc1F [Fluconazole, reference compound]
MIC (C. auris CBS10913 [1]; [9]): 1 µg/mL | FICDrugB (C. auris CBS10913 [1]; in combination with TM8): 0.0625 | MF of antibiotic (modulation factor) (C. auris CBS10913 [1]; in combination with TM8): 16 | MIC (C. auris CBS12373 [2]; [9]): 128 µg/mL | FICDrugB (C. auris CBS12373 [2]; in combination with TM8): 0.0625 | MF of antibiotic (modulation factor) (C. auris CBS12373 [2]; in combination with TM8 (0.5× MIC)): 16 | Mature biofilm MBEC ([3]; C. auris CBS12373, 48 h biofilm, then 24 h with agent, MTT, ≥90% reduction): 2048 µg/mL | Biofilm tolerance factor-eradication (MBEC/MIC) ([3]; C. auris CBS12373, MTT): 4 | Mature biofilm inhibition, blank corrected 570 nm, av. of readings ([3]; agent at 4 (growth control 1.918)): 2.95 | Mature biofilm inhibition, blank corrected 570 nm, av. of readings ([3]; agent at 8 (growth control 1.918)): 2.348 | Mature biofilm inhibition, blank corrected 570 nm, av. of readings ([3]; agent at 16 (growth control 1.918)): 2.232 | Mature biofilm inhibition, blank corrected 570 nm, av. of readings ([3]; agent at 32 (growth control 1.918)): 2.12 | Mature biofilm inhibition, blank corrected 570 nm, av. of readings ([3]; agent at 64 (growth control 1.918)): 2.186 | Mature biofilm inhibition, blank corrected 570 nm, av. of readings ([3]; agent at 128 (growth control 1.918)): 0.95 | Mature biofilm inhibition, blank corrected 570 nm, av. of readings ([3]; agent at 256 (growth control 1.918)): 0.345 | Mature biofilm inhibition, blank corrected 570 nm, av. of readings ([3]; agent at 512 (growth control 1.918)): 0.145 | Mature biofilm inhibition, blank corrected 570 nm, av. of readings ([3]; agent at 1024 (growth control 1.918)): 0.104 | Mature biofilm inhibition, blank corrected 570 nm, av. of readings ([3]; agent at 2048 (growth control 1.918)): 0.008 | Biofilm tolerance factor-inhibition (MBIC/MIC) [4]: 4 | Initial biofilm MBIC ([4]; 4 h adhesion, then 48 h with agent, ≥90% reduction): 2048 µg/mL | MIC against C. auris (C. auris CBS10913 [5]): 1 µg/mL (≈ 3.27 µM) | MIC against C. auris (C. auris CBS12373 [6]; CBS 12 373, RPMI 1640 with MOPS, 5 × 10^3 CFU ml^−1, ≥90% reduction (≥50% for fluconazole)): 128 µg/mL (≈ 418 µM) | MIC90 (C. auris CBS12373 [6]; Candidozyma auris, C. auris CBS12373 suspension used in the antibiofilm study, read-out: MIC90): 512 µg/mL (≈ 1670 µM) | MIC (C. auris CBS12373 [6]; Candidozyma auris, CBS 12 373, value in brackets, read-out: MIC against C. auris): 418 µM (≈ 128 µg/mL) | Biofilm tolerance factor-prevention (BPC/MIC) [7]: 8 | Anti-adherence (BPC) ([7]; 2 h adhesion with agent, 48 h growth, ≥90% reduction): 4096 µg/mL | MIC (C. auris CBS10913 [8]): 3.3 µM (≈ 1.01 µg/mL)

C[C@@H](O)[C@H]1C(=O)N2C(C(=O)O)=C(SCCN=CN)C[C@H]12 [Imipenem, imipenem]
MIC (A. baumannii 008): 48 µg/mL (≈ 160 µM) | MIC (A. baumannii 006): 64 µg/mL (≈ 214 µM) | MIC (A. baumannii 005): 64 µg/mL (≈ 214 µM) | MIC (K. pneumoniae JIE2709): 16 µg/mL (≈ 53.4 µM) | MIC (K. pneumoniae JIE2713): 128 µg/mL (≈ 428 µM) | MIC (A. baumannii 007): 96 µg/mL (≈ 321 µM) | MIC (P. aeruginosa AR-1270): 16 µg/mL (≈ 53.4 µM) | MIC (P. aeruginosa 33): 8 µg/mL (≈ 26.7 µM)
